The source of these data is ChEMBL document CHEMBL2074336, “Reversal of P-glycoprotein-associated multidrug resistance by ivermectin” (Biochem Pharmacol, 1997).

Holding throughout (format): functional, cell membranes, Plasma membrane
Common to all, as to settings: cem-vlb

Series [1] concerns the target T1, ATP-dependent translocase ABCB1 (Homo sapiens, UniProt P08183). The series can be described thus: TP_TRANSPORTER: inhibition of IAAP photoaffinity labelling (IAAP: 0.02 uM, PSC-833: 100-fold molar excess) in plasma membranes from CEM/VLB1.0 cells.
For series [2], the target named is T1, ATP-dependent translocase ABCB1. Nature of the series: TP_TRANSPORTER: inhibition of Vinblastine binding (Vinblastine: 0.2 uM, IVM: 300-fold molar excess) in plasma membranes from CEM/VLB1.0 cells. More on the design: scale not given: the % may be the effect or the level left.
Series [3] has the same target. The series can be described thus: TP_TRANSPORTER: inhibition of IAAP photoaffinity labelling (IAAP: 0.02 uM, IVM: 100-fold molar excess) in plasma membranes from CEM/VLB1.0 cells. Also on record: scale not given: the % may be the effect or the level left.
Series [4] has the same target. The series can be described thus: TP_TRANSPORTER: inhibition of Ivermectin binding (IVM: 0.2 uM, Vinblastine: 300-fold molar excess) in plasma membranes from CEM/VLB1.0 cells. More on the design: scale not given: the % may be the effect or the level left.

T1 sequence (P08183 whole entry): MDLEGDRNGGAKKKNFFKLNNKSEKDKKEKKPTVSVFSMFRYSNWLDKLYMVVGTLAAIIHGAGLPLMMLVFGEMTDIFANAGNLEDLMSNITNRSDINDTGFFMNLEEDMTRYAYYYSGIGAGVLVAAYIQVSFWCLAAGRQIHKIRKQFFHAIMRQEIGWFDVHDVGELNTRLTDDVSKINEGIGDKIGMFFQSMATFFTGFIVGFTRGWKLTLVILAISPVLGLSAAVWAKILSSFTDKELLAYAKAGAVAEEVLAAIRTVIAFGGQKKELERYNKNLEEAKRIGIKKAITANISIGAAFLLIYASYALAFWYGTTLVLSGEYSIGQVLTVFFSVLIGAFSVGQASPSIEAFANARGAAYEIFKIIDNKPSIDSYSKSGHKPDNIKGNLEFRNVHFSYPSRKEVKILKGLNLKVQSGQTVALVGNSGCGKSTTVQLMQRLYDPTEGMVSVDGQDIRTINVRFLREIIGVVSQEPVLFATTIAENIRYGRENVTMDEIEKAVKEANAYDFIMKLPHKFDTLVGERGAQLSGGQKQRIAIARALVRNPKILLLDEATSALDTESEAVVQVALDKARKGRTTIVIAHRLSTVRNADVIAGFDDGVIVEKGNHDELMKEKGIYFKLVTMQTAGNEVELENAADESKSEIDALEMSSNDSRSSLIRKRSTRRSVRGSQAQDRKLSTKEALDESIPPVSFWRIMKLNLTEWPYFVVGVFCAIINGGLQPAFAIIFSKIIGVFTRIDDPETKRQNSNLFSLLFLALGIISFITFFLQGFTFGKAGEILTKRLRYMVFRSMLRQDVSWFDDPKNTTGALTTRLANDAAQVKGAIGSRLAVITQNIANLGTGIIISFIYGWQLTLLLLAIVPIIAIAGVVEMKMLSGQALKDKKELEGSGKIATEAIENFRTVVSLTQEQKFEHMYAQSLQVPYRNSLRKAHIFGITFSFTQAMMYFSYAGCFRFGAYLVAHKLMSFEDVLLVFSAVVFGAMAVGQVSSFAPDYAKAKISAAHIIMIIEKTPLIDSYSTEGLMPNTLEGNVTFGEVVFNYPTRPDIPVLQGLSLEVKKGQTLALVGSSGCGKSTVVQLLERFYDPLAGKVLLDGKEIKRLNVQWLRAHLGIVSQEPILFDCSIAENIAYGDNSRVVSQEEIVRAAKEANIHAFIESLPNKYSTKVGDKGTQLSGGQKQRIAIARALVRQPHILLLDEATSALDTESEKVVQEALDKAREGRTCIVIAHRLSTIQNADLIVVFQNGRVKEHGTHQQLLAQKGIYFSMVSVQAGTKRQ

Consider `C/C=C/C[C@@H](C)C(=O)[C@H]1C(=O)N[C@@H](C(C)C)C(=O)N(C)CC(=O)N(C)[C@@H](CC(C)C)C(=O)N[C@@H](C(C)C)C(=O)N(C)[C@@H](CC(C)C)C(=O)N[C@@H](C)C(=O)N[C@H](C)C(=O)N(C)[C@@H](CC(C)C)C(=O)N(C)[C@@H](CC(C)C)C(=O)N(C)[C@@H](C(C)C)C(=O)N1C` [VALSPODAR], for which the Activity result in series [1] was “inhibitor [+]”. In the case of IVERMECTIN, the Activity in series [2] and in series [3] was 0% throughout. In turn, `CC[C@]1(O)C[C@@H]2CN(CCc3c([nH]c4ccccc34)[C@@](C(=O)OC)(c3cc4c(cc3OC)N(C)[C@H]3[C@@](O)(C(=O)OC)[C@H](OC(C)=O)[C@]5(CC)C=CCN6CC[C@]43[C@@H]65)C2)C1` [VINBLASTINE] registered an Activity in series [4] of 44%.
